# Reference: PubChem BioAssay (NCI)
#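 Values below derive from 48-hour exposures of cells grown in 96-well plates, with endpoints linearly interpolated between the two concentrations bracketing the appropriate inhibition level. At the TGI there is no net growth.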
# Experiments:
# Experiment in all cases: NCI tumour cell line growth inhibition, 48 h
# UACC-62 melanoma = tested on: UACC-62 melanoma
# PC-3 prostate = tested on: PC-3 prostate
# SK-MEL-5 melanoma = tested on: SK-MEL-5 melanoma
# IGROV1 ovarian = tested on: IGROV1 ovarian
# NCI-H522 lung = tested on: NCI-H522 lung
# SF-268 CNS = tested on: SF-268 CNS
# A549 NSCLC = tested on: A549 NSCLC
# U251 CNS = tested on: U251 CNS
# MDA-N = tested on: MDA-N
# HCC-2998 colon = tested on: HCC-2998 colon
# RPMI-8226 leukemia = tested on: RPMI-8226 leukemia
# MDA-MB-435 = tested on: MDA-MB-435
# COLO 205 colon = tested on: COLO 205 colon
# K-562 leukemia = tested on: K-562 leukemia
# NCI-H460 lung = tested on: NCI-H460 lung
# UO-31 renal = tested on: UO-31 renal
# NCI-H226 lung = tested on: NCI-H226 lung
# UACC-257 melanoma = tested on: UACC-257 melanoma
# RXF 393 renal = tested on: RXF 393 renal
# HOP-92 NSCLC = tested on: HOP-92 NSCLC
# SF-295 CNS = tested on: SF-295 CNS
# NCI/ADR-RES ovarian = tested on: NCI/ADR-RES ovarian
# HCT-15 colon = tested on: HCT-15 colon
# ACHN renal = tested on: ACHN renal
# MALME-3M melanoma = tested on: MALME-3M melanoma
# HCT-116 colon = tested on: HCT-116 colon
# MDA-MB-231 breast = tested on: MDA-MB-231 breast
# SR leukemia = tested on: SR leukemia
# EKVX NSCLC = tested on: EKVX NSCLC
# MCF7 breast = tested on: MCF7 breast
# 786-0 renal = tested on: 786-0 renal
# M14 melanoma = tested on: M14 melanoma
# CAKI-1 renal = tested on: CAKI-1 renal
# SK-MEL-2 melanoma = tested on: SK-MEL-2 melanoma
# T-47D breast = tested on: T-47D breast
# HL-60(TB) leukemia = tested on: HL-60(TB) leukemia
# OVCAR-4 ovarian = tested on: OVCAR-4 ovarian
# SNB-19 CNS = tested on: SNB-19 CNS
# OVCAR-5 ovarian = tested on: OVCAR-5 ovarian
# SW-620 colon = tested on: SW-620 colon
# KM12 colon = tested on: KM12 colon
# HOP-62 NSCLC = tested on: HOP-62 NSCLC
# SK-OV-3 ovarian = tested on: SK-OV-3 ovarian
# LOX IMVI melanoma = tested on: LOX IMVI melanoma
# SN12C renal = tested on: SN12C renal
# OVCAR-8 ovarian = tested on: OVCAR-8 ovarian
# TK-10 renal = tested on: TK-10 renal
# HT29 colon = tested on: HT29 colon
# SF-539 CNS = tested on: SF-539 CNS
# HS 578T breast = tested on: HS 578T breast
# SK-MEL-28 melanoma = tested on: SK-MEL-28 melanoma
# SNB-75 CNS = tested on: SNB-75 CNS
# MOLT-4 leukemia = tested on: MOLT-4 leukemia
# NCI-H23 lung = tested on: NCI-H23 lung
# BT-549 breast = tested on: BT-549 breast
smiles,measurement,setting,value
COc1ccc2c(c1)CN1C(=N2)CSC1c1ccccc1Cl (stereo not given),TGI,UACC-62 melanoma,34.6 µM
same,TGI,PC-3 prostate,70.5 µM
same,TGI,SK-MEL-5 melanoma,28.5 µM
same,TGI,IGROV1 ovarian,42.2 µM
same,TGI,NCI-H522 lung,39.2 µM
same,TGI,SF-268 CNS,76.4 µM
same,TGI,A549 NSCLC,> 100 µM
same,TGI,U251 CNS,59.6 µM
same,TGI,MDA-N,36.1 µM
same,TGI,HCC-2998 colon,29.8 µM
same,TGI,RPMI-8226 leukemia,29.9 µM
same,TGI,MDA-MB-435,39.9 µM
same,TGI,COLO 205 colon,28.3 µM
same,TGI,K-562 leukemia,30.5 µM
same,TGI,NCI-H460 lung,32.7 µM
same,TGI,UO-31 renal,38.3 µM
same,TGI,NCI-H226 lung,31.3 µM
same,TGI,UACC-257 melanoma,28.8 µM
same,TGI,RXF 393 renal,29.7 µM
same,TGI,HOP-92 NSCLC,31.2 µM
same,TGI,SF-295 CNS,75.6 µM
same,TGI,NCI/ADR-RES ovarian,53.8 µM
same,TGI,HCT-15 colon,38.9 µM
same,TGI,ACHN renal,41.8 µM
same,TGI,MALME-3M melanoma,47.9 µM
same,TGI,HCT-116 colon,33.1 µM
same,TGI,MDA-MB-231 breast,67.5 µM
same,TGI,SR leukemia,27 µM
same,TGI,EKVX NSCLC,35.4 µM
same,TGI,MCF7 breast,> 100 µM
same,TGI,786-0 renal,34.5 µM
same,TGI,M14 melanoma,35.4 µM
same,TGI,CAKI-1 renal,> 100 µM
same,TGI,SK-MEL-2 melanoma,37.3 µM
same,TGI,T-47D breast,> 100 µM
same,TGI,HL-60(TB) leukemia,24.9 µM
same,TGI,OVCAR-4 ovarian,45.1 µM
same,TGI,SNB-19 CNS,> 100 µM
same,TGI,OVCAR-5 ovarian,46.8 µM
same,TGI,SW-620 colon,41.7 µM
same,TGI,KM12 colon,34.8 µM
same,TGI,HOP-62 NSCLC,> 100 µM
same,TGI,SK-OV-3 ovarian,79.2 µM
same,TGI,LOX IMVI melanoma,28.9 µM
same,TGI,SN12C renal,40.1 µM
same,TGI,OVCAR-8 ovarian,43.2 µM
same,TGI,TK-10 renal,68 µM
same,TGI,HT29 colon,32.8 µM
same,TGI,SF-539 CNS,32.1 µM
same,TGI,HS 578T breast,82.5 µM
same,TGI,SK-MEL-28 melanoma,26.9 µM
same,TGI,SNB-75 CNS,48.8 µM
same,TGI,MOLT-4 leukemia,19 µM
same,TGI,NCI-H23 lung,3.45 µM
same,TGI,BT-549 breast,80.3 µM
